Experimental data from ChEMBL document CHEMBL3507680, “University of Dundee, Gates Library screen for HepG2 cell viability”.

Assay: Human HepG2 cell viability assay in 384 well format
Format: toxicity, cell-based
Set-up: dose 125 nL, time 70.5 hour; concentration not given beside the values
Conditions: HepG2 cells, read-out: Inhibition

Point of comparison: `CCn1ncc2c1CN(C(=O)Cc1ccccn1)CC2COC` (stereo unspecified), cytotoxicity at 70.5 h -3.07%. Against it:
- CCNC(=O)N1CCCCC1CCNS(C)(=O)=O (stereo unspecified) — lower, -10.5%
- CN(C)C1CCN(C(=O)NCc2ccccc2Cn2cncn2)CC1 — lower, -11.6%
- CN(C)C1CCN(C(=O)NCc2ccc(Cn3cncn3)cc2)CC1 — higher, 14.8%
- CCOC(CC)C(=O)NCc1ccnc(Oc2ccc(F)cc2)c1 (stereo unspecified) — lower, -7.99%
- Cc1ccc(NC(=O)NC(C)C(=O)N2CCS(=O)(=O)CC2)cc1 (stereo unspecified) — lower, -7.48%
- O=C(NCCNCC1CNc2ccnn2C1)c1ccc(F)cc1 (stereo unspecified) — lower, -6.67%
- CCOc1ccc(C(=O)NS(=O)(=O)c2cncc(Br)c2)cc1OC — higher, 18.9%
- CC(NC(=O)COc1nc(C(C)(C)C)no1)c1ccco1 (stereo unspecified) — lower, -6.24%
- CN(Cc1ccc(OC(F)F)cc1)C(=O)CS(=O)(=O)c1ccc(Cl)cc1 — lower, -9.26%
- CC(C)NC(=O)COc1nc(C(C)(C)C)no1 — lower, -6.41%
- Cc1ccc(CC(=O)NC(C)C(=O)N2CCS(=O)(=O)CC2)cc1 (stereo unspecified) — higher, -2.68%
- Cn1cccc1C(=O)N1CCC2(CC1)CN(c1ccsc1)C(=O)CO2 — lower, -15.9%
- CC(=O)NCC(=O)N1C[C@@H](C)[C@@]2(CCN(c3ccsc3)C2=O)C1 — lower, -10.5%
- Cc1nc(NCC2CC2)nc2c1COCC21CCN(C(=O)NC(C)C)C1 (stereo unspecified) — lower, -5.59%
- O=C(c1ccccn1)N1CCC2(CC1)CN(c1cncnc1)C(=O)CO2 — lower, -12.2%
- O=C(c1cscn1)N1CCC[C@]2(C[C@@H](OCC3CC3)CO2)C1 — lower, -11%
- C[C@H]1C[C@H]2CN(C(=O)CCc3ccccc3)CC[C@H]2O1 — lower, -11.5%
- COCCC1COC2(CCN(C(=O)Cc3ccccc3)CC2)C1 (stereo unspecified) — lower, -13.5%
- O=C(CC1CC1)N1CCC2(CC1)CN(c1ncc(F)cn1)CCO2 — lower, -9.05%
- COCC1CN(C(=O)CC2Cc3ccccc3C2)Cc2c1cnn2C (stereo unspecified) — lower, -5.66%
- CCc1ncnc2c1CCN(C(=O)c1cccn1C)CC2 — higher, 20.2%
- O=C(Cc1ccccc1)N1CCC2(CC1)CN(c1ncccn1)CCO2 — lower, -9.68%
- c1ccc(COC[C@@H]2CC[C@H]3[C@H](CCN3c3ncccn3)O2)nc1 — lower, -9.8%
- CC(C)N(C)[C@@H]1CCN(C(=O)c2ccc[nH]2)[C@H]1Cc1cnn(C)c1 — lower, -8.9%
- Cn1cc(C[C@H]2[C@@H](OCC3CC3)CCN2C(=O)c2ccc[nH]2)cn1 — higher, 21.2%
- COCCO[C@@H]1CCN(C(=O)c2ccc[nH]2)[C@H]1Cc1cnn(C)c1 — lower, -7.64%
- CCOCC1CN(C(=O)Cc2ccccn2)Cc2c1cnn2CC (stereo unspecified) — higher, 23.4%
- CC(C)N1CCC2(CC1)CC(c1cccnc1)C(=O)N2 (stereo unspecified) — lower, -10.2%
- O=C(c1cscn1)N1C[C@H]2CN(Cc3nccs3)C[C@H]2C1 — higher, -1.36%
- CCOCc1ncn2c1CN(C(=O)c1ccoc1)CC2 — lower, -12.2%
- O=C(c1ccc[nH]1)N1CCCn2cnc(COCC3CC3)c2C1 — lower, -9.86%
- O=C(c1cccs1)N1CCc2ncnc(C3CCOC3)c2CC1 (stereo unspecified) — lower, -14.6%
- O=C(c1cccs1)N1CCCn2cnc(COCC3CC3)c2C1 — lower, -12.8%
- Cc1occc1C(=O)N1CCc2ncnc(C3CCOC3)c2CC1 (stereo unspecified) — lower, -12.9%
- O=C(c1ccco1)N1CCCn2cnc(COCC3CC3)c2C1 — lower, -7.39%
- O=C(c1cscn1)N1CCC2(CCN(Cc3nccs3)CC2)CC1 — lower, -14.7%
- CCS(=O)(=O)N1CC[C@H]2OCC[C@@]2(C(=O)NC)C1 — lower, -9.74%
- CNC(=O)[C@@]12CCO[C@@H]1CCN(S(=O)(=O)c1ccccc1F)C2 — lower, -13.3%
- CC1=C(CCN2CC[C@@H](N3CCC(O)CC3)[C@H](O)C2)C(C)(C)CCC1 — lower, -5.02%
- Cc1ccc(C)c(NC(=O)N2C[C@H](N(C)C)C[C@H]2CO)c1 — lower, -6.76%
- COC[C@]1(O)CCN(c2cc(C3CC3)ncn2)CC1(C)C — lower, -10.5%
- CCc1nc(C)c(C(=O)N(C)Cc2cnc3ccccn23)o1 — lower, -7.82%
- COc1ccc(CCC(=O)N2CCNCC2C(=O)N2CCCC2)cc1 (stereo unspecified) — lower, -6.16%
- CCCc1cc(NCCN2CCNC2=O)n2nccc2n1 — lower, -11.5%
- CC1CCN(S(=O)(=O)N2CCc3c(c(C(=O)O)nn3CC3CC3)C2)CC1 — higher, 1.09%
- CCc1nnsc1C(=O)NCCC1CN(C(C)C)CCO1 (stereo unspecified) — lower, -7.17%
- COC(=O)C1CCCCN1C(=O)c1cn(C/C=C/c2ccccc2)nn1 (stereo unspecified) — higher, 23.4%
- NCCO[C@H]1C[C@@H](O)C12CCN(C1Cc3ccccc3C1)CC2 — higher, 34.2%
- COCCC1COC2(CCN(C(=O)c3ccncc3)CC2)C1 (stereo unspecified) — higher, 30.8%
- CCO[C@@H]1CCN(C(=O)c2ccc[nH]2)[C@@H]1Cc1cccnc1 — lower, -6.51%
- Cc1nc(COC[C@H]2CC[C@H]3[C@H](CCN3c3ncccn3)O2)cs1 — lower, -6.71%
- Cn1nc(Cn2ccnc2)c2c1CN(C(=O)c1ccoc1)C2 — lower, -9.72%
- O=C(c1ccc(F)cc1)N1CC[C@H]2[C@H]1CCN2CC1CCOCC1 — lower, -6.57%
- Cc1cccc(C(=O)N2CCc3ncnc(C4CCOC4)c3CC2)n1 (stereo unspecified) — higher, -0.465%
- Cn1cc(N2C(=O)CC[C@@H]3[C@H]2CCN3C(=O)c2cscn2)cn1 — lower, -10.2%
- Cc1cccc(N2CC3(CCN(Cc4nccn4C)C3)CC2=O)c1 (stereo unspecified) — lower, -8.56%
- Cn1ccnc1CN1CCC2(CC(=O)N(c3ccc4c(c3)OCO4)C2)C1 (stereo unspecified) — lower, -17.1%
- Cc1oncc1C(=O)N1CC[C@H]2[C@@H]1CCC(=O)N2c1cccnc1 — lower, -14.4%
- O=C(c1cscn1)N1CCC2(CN(Cc3nccs3)C2)C1 — lower, -11.9%
- Cn1cc(CN2CC[C@@H]3[C@@H]2CCN3C(=O)Cc2cccc(F)c2)cn1 — lower, -4.59%
- O=C(c1cccnc1)N1CCc2ncnc(N3CCOCC3)c2CC1 — lower, -7.42%
- Cn1cc(CN2CC[C@@H]3[C@@H]2CCN3C(=O)c2cccc(F)c2)cn1 — lower, -14.7%
- CN(C)CCN1C2(CCN(Cc3nccs3)C2)c2ccccc2S1(=O)=O (stereo unspecified) — higher, 24.4%
- c1ccc(OC2COC3(CCN(CC4CC4)CC3)C2)nc1 (stereo unspecified) — higher, 2.65%
- Cn1ncc2c1CN(C(=O)Cc1ccccn1)CC2COCC1CC1 (stereo unspecified) — lower, -10.6%
- Cc1cnc(N2CC[C@@H]3O[C@H](COCc4ccccn4)CC[C@@H]32)nc1 — higher, -1.58%
- c1ccc(COC[C@H]2CC[C@H]3[C@H](CCN3c3ncccn3)O2)nc1 — lower, -3.8%
- c1ccc(O[C@H]2CO[C@@]3(CCN(Cc4ccc5c(c4)OCO5)C3)C2)nc1 — higher, 0.478%
- O=C(NCc1cccnc1)[C@H]1CC[C@@H]2[C@@H](CCN2c2ncccn2)O1 — lower, -6.01%
- O=C(c1ccco1)N1CC[C@@H](N2CCOCC2)[C@@H]1Cc1ccncc1 — lower, -4.82%
- Cc1ccc(N2CCO[C@H]3CN(Cc4ccoc4)C[C@H]32)nn1 — higher, 6.75%
- CN(Cc1cccnc1)C1CC2(CCN(Cc3ccccn3)CC2)C1 — lower, -11.6%
- CN(Cc1ccco1)[C@@H]1CN(Cc2cccnc2)[C@@H]2CCCO[C@H]12 — lower, -12.5%
- c1cc(COC[C@]23COC[C@H]2CN(Cc2ccncc2)C3)ccn1 — higher, 9.04%
- c1ccc(CN2CCC3(CC2)CCN(Cc2cccnc2)C3)nc1 — lower, -9.45%
